We go through two compounds from US9040525B2, “Cyclic amide derivative” (MOCHIDA PHARMACEUTICAL CO., LTD., priority 2010, dated 2015).

In general, EC50 refers to the concentration needed to bring the measured effect to its halfway point. Read a low EC50 as a more potent agent.

The target in the assay is T1, GPR40 of human origin (Homo sapiens, UniProt O14842).
T1 construct: expressed in transfected cells
Briefly: Agonist action on GPR40 of human origin (Ca2+ fluorescence, CHO cell strain stably expressing GPR40). In kind it is cell-based. Particulars: fluctuation of Ca2+ concentration. The procedure: A CHO cell strain stably expressing GPR40 of human origin was used to determine the agonist action of a title compound. This cell strain was seeded in a clear bottom 96 well plate at 2×10^4 cells/100 μL/well. The cell strain was cultured in a CO2 incubator overnight using a Ham's F-12 medium containing a 10% fetal bovine serum, 100 U/mL penicillin, 0.1 mg/mL streptomycin, and 400 μg/mL. Geneticin. Calcium 4 Assay Kit (Molecular Devices) was used as a fluorescent calcium indicator. One mL of 77 mg/mL probenecid (Invitrogen) was added to 100 mL of a calcium indicator solution to prepare a solution (loading solution) mixed with a 20 mM HEPES-containing Hanks' balanced salt solution (HBSS) in equal proportions. To the cells from which the culture solution was removed, 200 μL of the loading solution was added, and the cells were cultured in a CO2 incubator for 1 hour. The title compound was diluted with a 20 mM HEPES-containing HBSS and was added to the cells by 50 μL, and the fluctuation of the Ca^2+concentration was measured by an intracellular ion analyzer. The EC50 value of the title compound was calculated using the dose-response curve of fluorescence intensity variation.

T1 sequence (O14842 whole entry): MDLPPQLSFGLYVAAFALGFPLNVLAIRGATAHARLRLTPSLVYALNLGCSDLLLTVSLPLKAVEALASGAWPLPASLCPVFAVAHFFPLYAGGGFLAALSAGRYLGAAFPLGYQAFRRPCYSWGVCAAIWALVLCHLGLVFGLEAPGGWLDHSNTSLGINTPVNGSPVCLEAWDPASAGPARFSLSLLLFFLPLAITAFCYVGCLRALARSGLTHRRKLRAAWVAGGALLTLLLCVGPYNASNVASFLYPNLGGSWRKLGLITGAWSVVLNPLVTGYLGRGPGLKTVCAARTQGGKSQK

`Cc1cc(OCCC(C)(C)O)cc(C)c1-c1cccc2c1CC[C@H]2Oc1ccc(C2CC(=O)NS(=O)(=O)C2)cc1` (stereo partly drawn) [Example 34, 5-(4-(((R)-4-(4-(3-hydroxy-3-methylbutoxy)-2,6-dimethylphenyl)-2,3-dihydro-1H-inden-1-yl)oxy)phenyl)-1,1-dioxo-1,2-thiazinan-3-one] gave an EC50 of under 300 nM.
With `Cc1cc(OCCC(C)(C)O)nc(C)c1-c1cccc(COc2ccc(C3CC(=O)NS(=O)(=O)C3)cc2)c1` (centres unmarked) [Example 35, 5-[4-[[3-[6-(3-hydroxy-3-methylbutoxy)-2,4-dimethylpyridin-3-yl]phenyl]methoxy]phenyl]-1,1-dioxo-1,2-thiazinan-3-one], the concentration for a half-maximal effect (EC50) was under 300 nM.
